# Reference: ChEMBL document CHEMBL1124723, “Selective inhibition of gamma-aminobutyric acid aminotransferase by (3R,4R),(3S,4S)- and (3R,4S),(3S,4R)-4-amino-5-fluoro-3-phenylpentanoic acids” (J Med Chem, 1990)
# Experiments:
# [1] = target: 4-aminobutyrate aminotransferase, mitochondrial (Sus scrofa, UniProt P80147); assay: Binding affinity against Gamma-amino-N-butyrate transaminase in pig brain; format: tissue-based
# [2] = Binding affinity against L-glutamate decarboxylase in pig brain; format: tissue-based, Sus scrofa
# 4-aminobutyrate aminotransferase, mitochondrial, sequence (P80147 whole entry): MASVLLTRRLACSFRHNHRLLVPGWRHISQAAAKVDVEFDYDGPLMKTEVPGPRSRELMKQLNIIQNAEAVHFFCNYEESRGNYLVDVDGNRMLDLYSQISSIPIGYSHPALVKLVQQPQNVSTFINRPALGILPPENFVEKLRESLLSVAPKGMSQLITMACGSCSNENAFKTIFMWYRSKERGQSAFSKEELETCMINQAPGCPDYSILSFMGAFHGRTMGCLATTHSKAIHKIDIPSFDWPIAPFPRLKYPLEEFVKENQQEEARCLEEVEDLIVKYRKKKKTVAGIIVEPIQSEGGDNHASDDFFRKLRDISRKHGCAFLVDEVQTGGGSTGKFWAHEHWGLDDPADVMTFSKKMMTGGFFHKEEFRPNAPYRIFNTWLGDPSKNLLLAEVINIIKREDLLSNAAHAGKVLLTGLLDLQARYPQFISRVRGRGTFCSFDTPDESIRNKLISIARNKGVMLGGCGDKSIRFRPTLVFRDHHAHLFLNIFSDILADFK
Structure (SMILES),Ki [1],Ki [2]
N[C@@H](CF)[C@@H](CC(=O)O)c1ccccc1,8 mM,
NC(CF)CCC(=O)O (stereo not drawn),,0.071 mM
N[C@H](CF)[C@@H](CC(=O)O)c1ccccc1,1 mM,
